Data set [1] addresses T1, α4β7 (adhesion of RPMI cells to CS-1) (Homo sapiens, UniProt P13612+P26010).
T1 construct: endogenous in cells
T1 sequence (P13612 34-1032): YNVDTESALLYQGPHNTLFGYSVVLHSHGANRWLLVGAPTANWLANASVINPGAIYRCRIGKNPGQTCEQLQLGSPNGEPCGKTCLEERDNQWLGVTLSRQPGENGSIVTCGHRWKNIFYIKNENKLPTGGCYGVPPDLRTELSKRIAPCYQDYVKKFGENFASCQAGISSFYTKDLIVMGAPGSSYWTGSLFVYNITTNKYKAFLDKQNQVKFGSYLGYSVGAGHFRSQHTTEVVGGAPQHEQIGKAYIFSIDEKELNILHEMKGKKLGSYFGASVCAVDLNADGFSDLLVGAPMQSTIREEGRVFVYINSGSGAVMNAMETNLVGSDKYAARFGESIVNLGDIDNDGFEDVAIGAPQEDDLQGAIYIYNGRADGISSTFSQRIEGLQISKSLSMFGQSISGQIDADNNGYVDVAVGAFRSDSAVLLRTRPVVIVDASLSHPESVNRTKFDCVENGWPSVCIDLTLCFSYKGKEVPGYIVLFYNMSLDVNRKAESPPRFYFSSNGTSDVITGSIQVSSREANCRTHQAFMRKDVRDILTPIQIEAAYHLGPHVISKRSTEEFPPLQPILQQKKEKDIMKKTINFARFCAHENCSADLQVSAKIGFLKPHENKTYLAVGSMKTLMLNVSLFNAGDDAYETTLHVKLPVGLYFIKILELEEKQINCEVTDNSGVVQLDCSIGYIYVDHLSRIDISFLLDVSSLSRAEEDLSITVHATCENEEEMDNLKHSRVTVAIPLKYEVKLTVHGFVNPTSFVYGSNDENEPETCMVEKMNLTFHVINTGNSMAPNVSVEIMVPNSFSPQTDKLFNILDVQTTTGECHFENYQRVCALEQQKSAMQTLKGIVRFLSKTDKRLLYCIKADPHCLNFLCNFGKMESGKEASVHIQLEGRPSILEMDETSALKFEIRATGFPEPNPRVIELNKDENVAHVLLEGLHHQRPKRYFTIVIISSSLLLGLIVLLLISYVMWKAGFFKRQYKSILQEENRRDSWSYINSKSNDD
T1 sequence (P26010 20-798): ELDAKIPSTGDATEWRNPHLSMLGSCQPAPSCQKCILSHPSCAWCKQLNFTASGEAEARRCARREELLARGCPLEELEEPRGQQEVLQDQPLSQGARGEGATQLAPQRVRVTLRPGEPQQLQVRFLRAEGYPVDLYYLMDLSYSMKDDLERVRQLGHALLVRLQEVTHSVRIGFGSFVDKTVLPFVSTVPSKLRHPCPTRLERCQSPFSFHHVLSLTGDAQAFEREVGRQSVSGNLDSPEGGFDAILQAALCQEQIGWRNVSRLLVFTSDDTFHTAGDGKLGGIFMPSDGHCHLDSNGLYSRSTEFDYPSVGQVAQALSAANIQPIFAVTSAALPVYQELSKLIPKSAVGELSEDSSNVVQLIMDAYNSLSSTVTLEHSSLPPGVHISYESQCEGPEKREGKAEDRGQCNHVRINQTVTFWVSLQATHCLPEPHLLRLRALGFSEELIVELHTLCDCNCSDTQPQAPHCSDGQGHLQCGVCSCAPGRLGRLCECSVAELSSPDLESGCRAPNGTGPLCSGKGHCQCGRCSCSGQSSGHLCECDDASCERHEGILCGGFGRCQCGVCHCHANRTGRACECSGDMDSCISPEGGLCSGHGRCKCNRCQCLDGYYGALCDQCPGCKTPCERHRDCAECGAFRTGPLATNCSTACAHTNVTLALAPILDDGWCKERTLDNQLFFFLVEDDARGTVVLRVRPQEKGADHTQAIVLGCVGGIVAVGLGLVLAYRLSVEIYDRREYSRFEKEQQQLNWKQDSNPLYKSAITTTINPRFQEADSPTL
The experiment in a line: RPMI-CS-1 cell adhesion assay. The data set is classed as cell-based. As to conditions: adhesion of RPMI B-cell line (expresses α4β7) to CS-1 peptide coated microwells; read-out: RPMI-CS-1 IC50 value range.

Usually IC50 stands for the concentration that inhibits the measured activity by half. The term melting point denotes the temperature, or range, at which the solid turns liquid.

Structures are written as SMILES. Bounds are passed on as bounds.

`COc1cc(C(=O)NCc2ccccc2)cc(OC)c1-c1ccc(C[C@H](NC(=O)c2c(Cl)cccc2Cl)C(=O)O)cc1` [Example 167] came in with a melting point of 153 to 154 °C. In addition, the concentration for half-maximal inhibition (IC50) in data set [1] was below 300 nM.
For `O=C(N[C@@H](Cc1ccc(-c2c(OCC(F)(F)F)cccc2OCC(F)(F)F)cc1)C(=O)O)c1c(Cl)cccc1Cl` [Example 230] the same measures were 93 to 94 °C and 300 to 1000 nM.
For `COc1ccc(C(N)=O)c(OC)c1-c1ccc(C[C@H](NC(=O)c2c(Cl)cccc2Cl)C(=O)O)cc1` [Example 326, N-(2,6-Dichlorobenzoyl)-4-(2,6-dimethoxy-3-carbamoylphenyl)-L-phenylalanine] the same measures were 227 to 228 °C and below 300 nM.
For `COc1cccc(OC)c1-c1ccc(C[C@H](NC(=O)c2c(Cl)cccc2Cl)C(=O)O)cc1NC(C)=O` [Example 297, N-(2,6-Dichlorobenzoyl)-4-(2,6-dimethoxyphenyl)-3-acetylamino-L-phenylalanine], in that order: 142 to 144 °C and below 300 nM.
In the case of `CC(O)c1cc(C[C@H](NC(=O)c2c(Cl)cccc2Cl)C(=O)O)ccc1-c1ccccc1` (stereo partly drawn) [Example 74, N-(2,6-Dichlorobenzoyl)-3-(1-hydroxyethyl)-4-phenyl-L-phenylalanine], the melting point was in the range of 115 to 117 °C. In addition, the IC50 in data set [1] lay within 300 to 1000 nM.
For `CCCCC(O)c1cc(C[C@H](NC(=O)c2c(Cl)cccc2Cl)C(=O)O)ccc1-c1ccccc1OC` (some centres unmarked) [Example 342], in that order: 158 to 159 °C and below 300 nM.
For `COc1ccccc1-c1ccc(C[C@H](NC(=O)c2c(Cl)cccc2Cl)C(=O)O)cc1C(C)=O` [Example 71, 3-Acetyl-N-(2,6-dichlorobenzoyl)-4-(2-methoxyphenyl)-L-phenylalanine] the same measures were 87 to 89 °C and below 300 nM.
As for `CCOC(=O)Nc1cc(C[C@H](NC(=O)c2c(Cl)cccc2Cl)C(=O)O)ccc1-c1c(OC)cccc1OC` [Example 299], the melting point lay within 216 to 217 °C. Moreover, in data set [1], the half-maximal inhibitory concentration (IC50) is below 300 nM.
For `COc1cccc(OC)c1-c1ccc(C[C@H](NC(=O)c2c(Cl)cc(-c3nccs3)cc2Cl)C(=O)O)cc1` [Example 306, N-[4-(1,3-thiazol-2-yl)-2,6-dichlorobenzoyl]-4-(2,6-dimethoxyphenyl)-L-phenylalanine] the same measures were 141.9 °C and below 300 nM.
On to `COc1cc(CCN2CCN(C)CC2)cc(OC)c1-c1ccc(C[C@H](NC(=O)c2c(Cl)cccc2Cl)C(=O)O)cc1` [Example 264, N-(2,6-Dichlorobenzoyl)-4-[2,6-dimethoxy-4-[2-(4-methyl-1-piperazinyl)ethyl]phenyl]-L-phenylalanine], for which the melting point was determined as 178.9 °C. For the same molecule, in data set [1], the IC50 was below 300 nM.
The molecule `COc1cccc(OC)c1-c1ccc(C[C@H](NC(=S)c2c(Cl)cccc2Cl)C(=O)O)cc1` [Example 266, N-(2,6-Dichlorothiobenzoyl)-4-(2,6-dimethoxyphenyl)-L-phenylalanine] showed a melting point of 180.4 °C. Besides, in data set [1], the half-inhibitory concentration (IC50) is below 300 nM.
For `COc1cccc(OC)c1-c1ccc(C[C@H](NC(=O)c2c(Cl)cc(-c3cscn3)cc2Cl)C(=O)O)cc1` [Example 307, N-[4-(1,3-Thiazol-4-yl)-2,6-dichlorobenzoyl]-4-(2,6-dimethoxyphenyl)-L-phenylalanine], in that order: 186.5 °C and below 300 nM.
As for `CCCc1cc(OC)c(-c2ccc(C[C@H](NC(=O)c3c(Cl)cccc3Cl)C(=O)O)cc2)c(OC)c1` [Example 149], the melting point was 238 to 239 °C (dec.). In data set [1], the half-inhibitory concentration (IC50) is below 300 nM.
For `O=C(N[C@@H](Cc1ccc(-c2c(OCCO)cccc2OCCO)cc1)C(=O)O)c1c(Cl)cccc1Cl` [Example 229], in that order: 124 to 125 °C and below 300 nM.
For `COc1ccc(OC)c(-c2ccc(C[C@H](NC(=O)c3c(Cl)cccc3Cl)C(=O)O)cc2C(C)O)c1OC` (some centres unmarked) [Example 340], in that order: 121 to 123 °C and below 300 nM.
For `COc1cccc(OC)c1-c1ccc(C[C@H](NC(=O)c2c(Cl)cc(-c3cccn3C)cc2Cl)C(=O)O)cc1` [Example 302, N-[2,6-Dichloro-4-(1-methyl-2-pyrrolyl)benzoyl]-4-(2,6-dimethoxyphenyl)-L-phenylalanine], in that order: 199 °C and below 300 nM.
On to `COC(=O)Nc1cc(Cl)c(C(=O)N[C@@H](Cc2ccc(-c3c(OC)cccc3OC)cc2)C(=O)O)c(Cl)c1` [Example 201], for which the melting point is 147 to 149 °C. For the same molecule, the IC50 in data set [1] is below 300 nM.
For `COc1cccc(OC)c1-c1ccc(C[C@H](NC(=O)c2c(Cl)cccc2Cl)C(=O)O)cc1NS(C)(=O)=O` [Example 298] the same measures were 118 to 120 °C and below 300 nM.
For `COc1cc(C(=O)NS(C)(=O)=O)cc(OC)c1-c1ccc(C[C@H](NC(=O)c2c(Cl)cccc2Cl)C(=O)O)cc1` [Example 173, N-(2,6-Dichlorobenzoyl)-4-[4-(methanesulfonylamino)carbonyl-2,6-dimethoxyphenyl]-L-phenylalanine], in that order: 277 to 278 °C and below 300 nM.
For `COc1ccccc1-c1ccc(C[C@H](NC(=O)c2c(Cl)cccc2Cl)C(=O)O)cc1OC` [Example 75, N-(2,6-Dichlorobenzoyl)-3-methoxy-4-(2-methoxyphenyl)-L-phenylalanine] the same measures were 100 to 102 °C and below 300 nM.
In turn, `C=CCN(C(=O)OC(C)(C)C)c1cc(OC)c(-c2ccc(C[C@H](NC(=O)c3c(Cl)cccc3Cl)C(=O)O)cc2)c(OC)c1` [Example 155, N-(2,6-Dichlorobenzoyl)-4-[4-(N-allyl-N-tert-butoxycarbonylamino)-2,6-dimethoxyphenyl]-L-phenylalanine] displayed a melting point of 138 to 139 °C. Also, in data set [1], the IC50 was below 300 nM.
For `COc1cccc(OC)c1-c1ccc(CC[C@H](NC(=O)c2c(Cl)cccc2Cl)C(=O)O)cc1` [Example 295, N-(2,6-Dichlorobenzoyl)-4-(2,6-dimethoxyphenyl)-L-homophenylalanine] the same measures were 105 to 107 °C and 1000 to 5000 nM.
For `COc1cc(CCN2CCCCC2)cc(OC)c1-c1ccc(C[C@H](NC(=O)c2c(Cl)cccc2Cl)C(=O)O)cc1` [Example 265, N-(2,6-Dichlorobenzoyl)-4-[2,6-dimethoxy-4-(2-piperidinoethyl)phenyl]-L-phenylalanine] the same measures were 194.9 °C and below 300 nM.
For `COc1cccc(OCCF)c1-c1ccc(C[C@H](NC(=O)c2c(Cl)cccc2Cl)C(=O)O)cc1` [Example 228, N-(2,6-Dichlorobenzoyl)-4-[6-methoxy-2-(2-fluoroethoxy)phenyl]-L-phenylalanine] the same measures were 206 to 207 °C and below 300 nM.
In the case of `COCCOc1ccc2c(c1-c1ccc(C[C@H](NC(=O)c3c(Cl)cccc3Cl)C(=O)O)cc1)OCO2` [Example 233, N-(2,6-Dichlorobenzoyl)-4-[2,3-methylenedioxy-6-(2-methoxyethoxy)phenyl]-L-phenylalanine], the melting point lay within 167 to 168 °C. Moreover, in data set [1], the 50% inhibitory concentration (IC50) is 300 to 1000 nM.

The values are drawn from patent US6855843B2, “Inhibitors of α4 mediated cell adhesion” (Tanabe Seiyaku Co., Ltd., priority 1998, dated 2005).
